Assay results: patent publication US11174235B2, “Carboxy alkyl-ester anti-agglomerants for the control of natural gas hydrates” (ChampionX USA Inc., priority 2018, dated 2021)

Test: Sapphire rocking cell anti-agglomerant test
Details: dose needed for a pass ranking
Description: A Sapphire Rocking Cell RCS is commercially available from PSL Systemtechnik in Germany. The Sapphire Rocking Cell is a laboratory instrument used to test the performance of low dosage hydrate inhibitors. The compounds were evaluated based on their ability to effectively minimize the size of gas hydrate agglomerate particles and disperse those particles into the hydrocarbon phase. Chemical performance was evaluated by determining the maximum treatable water cut (water to oil ratio) and the minimum chemical dosage to register a pass in the rocking cell test.
A rocking cell has two parts, a manifold and a cell body. The manifold is made up of stainless steel fittings that are welded together. It has three stems. An inlet stem is used to charge gas into the cell. An outlet stem is used to release the gas out of the cell. The third stem connects to a transducer, which measures the pressure inside of the cell. The cell body has three layers. The outer layer is a polycarbonate tube, which has a thickness of 0.7 cm. The middle layer is made of stainless steel metal and is connected to the manifold. The inner layer is a high-pressure sapphire tube, which has an outer diameter of 2.8 cm, inner diameter of 1.85 cm, and length of 5 cm. This sapphire tube can handle up to 3000 psi. A stainless steel ball which has a diameter of 1.6 cm is located inside the sapphire tube to induce turbulence and mix fluids during the rocking process.
Test fluids usually contain three components. For the anti-agglomerate test, 7.2 mL of warm crude oil was first injected into the cell. Next, a solution of 30,000 total dissolved solids (TDS) ([…]) of NaCl synthetic brine was injected into the cell to make a 40% water cut mixture. The anti-agglomerate test compound was the final component injected into the cell. The dosage of the test compound was based on the volume of aqueous phase. The initial temperature was set to 21° C. Observations were made every two to three hours, before the rocking was stopped, and also immediately after the restart.
Each cell was charged with Green Canyon gas and pressurized up to 2500 psi. All cells rocked for at least 1.5 to 2 hours until fluid was saturated and pressure stabilized. The rocking was ceased and the tank temperature was reduced to the set point of 4° C. over approximately 8 hours. The cells were then reboosted to a pressure of 2500 psi and remained static for 24 hours. Rocking was restarted for 2 hours with frequent observations to rank each cell with a ranked set of pass/fail criterion. Pressure and tank temperature data was recorded during this time.
The pass/fail criteria are based on the ability of the ball in the rocking cell to move within the sapphire tube. […] In contrast, the anti-agglomerant fails if the ball's movement is obstructed or completely stopped by the formation of gas hydrate agglomerates. The anti-agglomerate's performance is borderline when there are observable gas hydrate agglomerates and at least some of the agglomerates are stuck to the walls of the sapphire tube; when these agglomerates are present and the movement of the ball is not restricted, the anti-agglomerant ranking is a borderline pass.

SMILES	Minimum Effective Dose (MED) (Oil B (25% w/c)) [vol. %]	Minimum Effective Dose (MED) (Oil C (35% w/c)) [vol. %]	Minimum Effective Dose (MED) (Oil D (25% w/c)) [vol. %]
CCCCCCCCCCCCOC(=O)C(CC(=O)O)NCCCN1CCCCCC1 (stereo not drawn) [Reaction 26]	2.0	>3.0	2.0
CCCCN(CCCC)CCCN(CCC(=O)O)C(CC(=O)O)C(=O)OCCCCCCCCCCC(C)C (stereo not drawn) [Reaction 24]	2.0	3.0	2.0
